Measurements from ChEMBL document CHEMBL1201862, “PubChem BioAssay data set” (2004).
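Where inhibition never reached the appropriate level, the endpoint shown equals the highest concentration tested. Otherwise, values were interpolated linearly from a five-concentration, 48-hour dose response in 96-well plates. At the GI50, growth is halved.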 Calls of active or inactive are those of the source. No stated cut-off is given here; in the data, active = GI50 up to about 1.1 µM and inactive = higher.

Legend:
Experiment in all cases: growth of human tumour cells (NCI), 48 h
786-0 = system: 786-0
A498 = system: A498
A549 = system: A549
ACHN = system: ACHN
CAKI-1 = system: CAKI-1
CCRF-CEM = system: CCRF-CEM
COLO 205 = system: COLO 205
DLD-1 = system: DLD-1
DMS-114 = system: DMS-114
DMS-273 = system: DMS-273
EKVX = system: EKVX
HCC 2998 = system: HCC 2998
HCT-116 = system: HCT-116
HCT-15 = system: HCT-15
HL-60 = system: HL-60
HOP-62 = system: HOP-62
IGROV-1 = system: IGROV-1
K562 = system: K562
KM-20L2 = system: KM-20L2
KM12 = system: KM12
LOX IMVI = system: LOX IMVI
LXFL 529 = system: LXFL 529
M14 = system: M14
M19-MEL = system: M19-MEL
MOLT-4 = system: MOLT-4
Malme-3M = system: Malme-3M
NCI-H226 = system: NCI-H226
NCI-H23 = system: NCI-H23
NCI-H460 = system: NCI-H460
NCI-H522 = system: NCI-H522
OVCAR-3 = system: OVCAR-3
OVCAR-4 = system: OVCAR-4
OVCAR-5 = system: OVCAR-5
OVCAR-8 = system: OVCAR-8
RPMI-8226 = system: RPMI-8226
RXF 393 = system: RXF 393
SF-268 = system: SF-268
SF-295 = system: SF-295
SF-539 = system: SF-539
SK-MEL-28 = system: SK-MEL-28
SK-MEL-5 = system: SK-MEL-5
SK-OV-3 = system: SK-OV-3
SN12C = system: SN12C
SNB-19 = system: SNB-19
SNB-78 = system: SNB-78
SR = system: SR
SW-620 = system: SW-620
TK-10 = system: TK-10
U-251 = system: U-251
UACC-257 = system: UACC-257
UACC-62 = system: UACC-62
UO-31 = system: UO-31
XF498 = system: XF498
HOP-18 = system: HOP-18
HOP-92 = system: HOP-92
HT-29 = system: HT-29
SK-MEL-2 = system: SK-MEL-2
SNB-75 = system: SNB-75

Measured: GI50

COC(=O)C1CCC2(C)[C@H](CCC3O[C@]32C)[C@@]1(C)CC(=O)c1ccoc1 (stereo not given in full)
active: SK-OV-3 0.0406 µM
81.1 µM: HCT-15
inactive: 786-0 > 100 µM | A498 43 µM | A549 > 100 µM | ACHN 34.4 µM | CAKI-1 > 100 µM | CCRF-CEM 31.1 µM | COLO 205 > 100 µM | DLD-1 > 100 µM | DMS-114 46.1 µM | DMS-273 > 100 µM | EKVX 18.7 µM | HCC 2998 > 100 µM | HCT-116 65.6 µM | HL-60 75 µM | HOP-62 > 100 µM | IGROV-1 58.6 µM | K562 46.1 µM | KM-20L2 > 100 µM | KM12 42.2 µM | LOX IMVI > 100 µM | LXFL 529 40.6 µM | M14 > 100 µM | M19-MEL > 100 µM | MOLT-4 28.3 µM | Malme-3M > 100 µM | NCI-H226 > 100 µM | NCI-H23 71 µM | NCI-H460 72.9 µM | NCI-H522 21.2 µM | OVCAR-3 > 100 µM | OVCAR-4 > 100 µM | OVCAR-5 > 100 µM | OVCAR-8 > 100 µM | RPMI-8226 52.7 µM | RXF 393 > 100 µM | SF-268 48.4 µM | SF-295 > 100 µM | SF-539 > 100 µM | SK-MEL-28 > 100 µM | SK-MEL-5 66.1 µM | SN12C > 100 µM | SNB-19 33.9 µM | SNB-78 > 100 µM | SR 41.5 µM | SW-620 > 100 µM | TK-10 36.9 µM | U-251 36.6 µM | UACC-257 > 100 µM | UACC-62 88.5 µM | UO-31 27.9 µM | XF498 20.4 µM

CC([C@H]1CCC2C3CCC4CC5(CC[C@]4(C)C3CC[C@@]21C)c1ccccc1C(=O)N5C)N(C)C (stereo not given in full)
27.7 µM: HCT-15
inactive: 786-0 13.9 µM | A498 23.8 µM | A549 78.5 µM | ACHN 44.9 µM | CAKI-1 > 100 µM | CCRF-CEM 44.4 µM | COLO 205 33 µM | DLD-1 36.5 µM | DMS-114 32.4 µM | DMS-273 12.9 µM | HCC 2998 > 100 µM | HCT-116 13.3 µM | HL-60 17.5 µM | HOP-18 > 100 µM | HOP-62 31.3 µM | HOP-92 50.5 µM | HT-29 6.18 µM | IGROV-1 40.6 µM | K562 15.7 µM | KM12 74.8 µM | LOX IMVI 1.65 µM | LXFL 529 32.2 µM | M14 13.9 µM | M19-MEL 17 µM | MOLT-4 19.2 µM | Malme-3M 21.2 µM | NCI-H23 > 100 µM | NCI-H460 21.4 µM | NCI-H522 46.9 µM | OVCAR-3 > 100 µM | OVCAR-4 68.1 µM | OVCAR-5 29 µM | OVCAR-8 39.8 µM | RPMI-8226 20.7 µM | RXF 393 33 µM | SF-268 > 100 µM | SF-295 18.7 µM | SF-539 17.9 µM | SK-MEL-28 17.6 µM | SK-MEL-2 19.7 µM | SK-MEL-5 17.9 µM | SK-OV-3 > 100 µM | SN12C 31.6 µM | SNB-19 42.3 µM | SNB-75 3.45 µM | SR 18.1 µM | SW-620 40.6 µM | TK-10 26.1 µM | U-251 40.4 µM | UACC-62 24.5 µM | UO-31 13 µM
